# Experimental data: ChEMBL document CHEMBL3400006, “Improving the passive permeability of macrocyclic peptides: Balancing permeability with other physicochemical properties” (Bioorg Med Chem, 2015)
# Square brackets hold non-standard residues; d marks the D form. Peptide text beside a SMILES is read from it. 2Pal = N[C@@H](Cc1ccccn1)C(=O)O; 4Pal = N[C@@H](Cc1ccncc1)C(=O)O
# Columns and labels:
# [1] = Lipophilicity, log D of the compound at pH 7.4 by ChromlogD analysis; assay type: physicochemical; details: buffer
# [2] = Solubility of the compound in phosphate buffer at pH 7.4 by chemi-luminescent nitrogen detection method; assay type: physicochemical
# [3] = Permeability of the compound at donor pH 7.4 and acceptor pH 7.4 after 3 hrs incubation by PAMPA analysis; assay type: ADME; details: read-out: permeability
Structure (SMILES),chromatographic logD [1],solubility [2] [µM],Papp at 3 h [3] [×10⁻⁶ cm/s]
CC(C)C[C@@H]1NC(=O)[C@H](Cc2ccc(O)cc2)NC(=O)[C@@H]2CCCN2C(=O)[C@H](CC(C)C)NC(=O)[C@H](CC(C)C)N(C)C(=O)[C@@H](CC(C)C)N(C)C1=O,7.52,103,34.7
CC(C)C[C@@H]1NC(=O)[C@H](Cc2ccc(O)cc2)NC(=O)[C@@H]2CCCN2C(=O)[C@H](CC(C)C)NC(=O)[C@H](CC(C)C)NC(=O)[C@@H](CC(C)C)NC1=O,5.53,170,–
CC(C)C[C@@H]1NC(=O)[C@@H](CC(C)C)N(C)C(=O)[C@H](CC(C)C)NC(=O)[C@H](Cc2ccc(O)cc2)NC(=O)[C@@H]2CCCN2C(=O)[C@H](CC(C)C)NC1=O,6.19,192,14.4
CC(C)C[C@@H]1NC(=O)[C@@H](CC(C)C)NC(=O)[C@H](CC(C)C)NC(=O)[C@@](C)(CC(C)C)NC(=O)[C@@H](Cc2ccc(O)cc2)NC(=O)[C@@H]2CCCN2C(=O)[C@H](CC(C)C)NC1=O,7.21,28.5,30
CC(C)C[C@@H]1NC(=O)[C@@H](CC(C)C)NC(=O)[C@H](Cc2ccc(O)cc2)NC(=O)[C@@H]2CCCN2C(=O)[C@H](CC(C)C)NC(=O)[C@](C)(CC(C)C)NC(=O)[C@@H](CC(C)C)NC1=O,6.88,122,18.5
CC(C)C[C@@H]1NC(=O)[C@H](Cc2ccc(O)cc2)NC(=O)[C@@H]2CCCN2C(=O)[C@H](CC(C)C)NC(=O)[C@H](CC(C)C)NC(=O)[C@H](Cc2ccccc2)NC1=O (cyclo(FLLPYL)),6.05,206,20
CC(C)C[C@@H]1NC(=O)[C@@H](CC(C)C)NC(=O)[C@H](CC(C)C)NC(=O)[C@@](C)(CC(C)C)NC(=O)[C@H](Cc2ccc(O)cc2)NC(=O)[C@@H]2CCCN2C(=O)[C@H](CC(C)C)NC1=O,6.65,102,30.3
CC(C)C[C@@H]1NC(=O)[C@@H](CC(C)C)NC(=O)[C@@H]([C@H](C)O)NC(=O)[C@H](Cc2ccc(O)cc2)NC(=O)[C@@H]2CCCN2C(=O)[C@H](CC(C)C)NC1=O,4.2,371,1.05
CC(C)C[C@@H]1NC(=O)[C@@H](CC(C)C)NC(=O)[C@H]([C@@H](C)O)NC(=O)[C@H](Cc2ccc(O)cc2)NC(=O)[C@@H]2CCCN2C(=O)[C@H](CC(C)C)NC1=O,4.65,372,< 0.65
CC(C)C[C@@H]1NC(=O)[C@@H](CC(C)C)NC(=O)[C@H](CC(C)C)NC(=O)[C@@H](CC(C)C)NC(=O)[C@H](Cc2ccc(O)cc2)NC(=O)[C@@H]2CCCN2C(=O)[C@H](CC(C)C)NC1=O,5.98,51.7,13
CC(C)C[C@@H]1NC(=O)[C@H](Cc2ccc(O)cc2)NC(=O)[C@@H]2CCCN2C(=O)[C@H](CC(C)C)NC(=O)[C@](C)(CC(C)C)NC(=O)[C@@H](CC(C)C)NC1=O,6.56,78,35
CC(C)C[C@@H]1NC(=O)[C@H](CC(C)C)NC(=O)[C@@H](CC(C)C)NC(=O)[C@H](Cc2ccc(O)cc2)NC(=O)[C@@H]2CCCN2C(=O)[C@H](CC(C)C)NC1=O,5.07,324,–
CC(C)C[C@@H]1NC(=O)[C@H](Cc2ccc(O)cc2)N(C)C(=O)[C@@H]2CCCN2C(=O)[C@H](CC(C)C)NC(=O)[C@H](CC(C)C)N(C)C(=O)[C@@H](CC(C)C)N(C)C1=O,8.32,53.7,–
CC(C)C[C@@H]1NC(=O)[C@H](Cc2ccc(O)cc2)NC(=O)[C@@H]2CCCN2C(=O)[C@H](CC(C)C)NC(=O)[C@H](CC(C)C)NC(=O)[C@H](Cc2ccccn2)NC1=O (cyclo([2Pal]LLPYL)),4.75,485,1.35
CC(C)C[C@@H]1NC(=O)[C@@H](CC(C)C)NC(=O)[C@](C)(CC(C)C)NC(=O)[C@H](Cc2ccc(O)cc2)NC(=O)[C@@H]2CCCN2C(=O)[C@H](CC(C)C)NC1=O,6.11,148,17
CC(C)C[C@@H]1NC(=O)[C@@H](CC(C)C)NC(=O)[C@@H](CC(C)C)NC(=O)[C@H](Cc2ccc(O)cc2)NC(=O)[C@H]2CCCN2C(=O)[C@@H](CC(C)C)NC1=O,5.57,248,–
CC(C)C[C@@H]1NC(=O)[C@H](Cc2ccc(O)cc2)NC(=O)[C@@H]2CCCN2C(=O)[C@H](CC(C)C)NC(=O)[C@H](CC(C)C)NC(=O)[C@H](Cc2ccncc2)NC1=O (cyclo([4Pal]LLPYL)),4.45,451,< 0.65
